# Data from PubChem BioAssay AID1963834 (Molecular Pharmacology Branch, DTP, NCI, 2024).
# pIC50: −log10 of the molar value.
# Test system: 873145-292-R-J1-PDC complex spheroid viability
# Experiment: Anticancer human tumor 873145-292-R-J1-PDC patient-derived renal clear cell carcinoma cell line growth inhibition [POLQ]
# Details: for pIC50: curve of first compound; for viability, T/C: stronger effect = lower value
# How it was run: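 Three-cell-type spheroids modelling solid tumor plus stroma served as the readout system; POL inhibitors were tested individually and in combination, concentration ranges set by clinical Cmax where known.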
# [1] = second compound 0.0316 µM, first compound 0.0316 µM
# [2] = second compound 0.0316 µM, first compound 0.1 µM
# [3] = second compound 0.0316 µM, first compound 0.316 µM
# [4] = second compound 0.0316 µM, first compound 1 µM
# [5] = second compound 0.0316 µM, first compound 3.16 µM
# [6] = second compound 0.0316 µM, first compound 10 µM
# [7] = second compound 0.1 µM, first compound 0.0316 µM
# [8] = second compound 0.1 µM, first compound 0.1 µM
# [9] = second compound 0.1 µM, first compound 0.316 µM
# [10] = second compound 0.1 µM, first compound 1 µM
# [11] = second compound 0.1 µM, first compound 3.16 µM
# [12] = second compound 0.1 µM, first compound 10 µM
# [13] = second compound 0.316 µM, first compound 0.0316 µM
# [14] = second compound 0.316 µM, first compound 0.1 µM
# [15] = second compound 0.316 µM, first compound 0.316 µM
# [16] = second compound 0.316 µM, first compound 1 µM
# [17] = second compound 0.316 µM, first compound 3.16 µM
# [18] = second compound 0.316 µM, first compound 10 µM
# [19] = second compound 1 µM, first compound 0.0316 µM
# [20] = second compound 1 µM, first compound 0.1 µM
# [21] = second compound 1 µM, first compound 0.316 µM
# [22] = second compound 1 µM, first compound 1 µM
# [23] = second compound 1 µM, first compound 3.16 µM
# [24] = second compound 1 µM, first compound 10 µM
# [25] = second compound 3.16 µM, first compound 0.0316 µM
# [26] = second compound 3.16 µM, first compound 0.1 µM
# [27] = second compound 3.16 µM, first compound 0.316 µM
# [28] = second compound 3.16 µM, first compound 1 µM
# [29] = second compound 3.16 µM, first compound 3.16 µM
# [30] = second compound 3.16 µM, first compound 10 µM
# [31] = second compound 10 µM, first compound 0.0316 µM
# [32] = second compound 10 µM, first compound 0.1 µM
# [33] = second compound 10 µM, first compound 0.316 µM
# [34] = second compound 10 µM, first compound 1 µM
# [35] = second compound 10 µM, first compound 3.16 µM
# [36] = second compound 10 µM, first compound 10 µM
# 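Further: spheroids exposed to compounds for 7 days before viability readout.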
# 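Wherever viability, T/C is given: luminescence signal used as surrogate for viable cell content; 100% = DMSO vehicle control viability.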
structure (smiles),measurement,setting,value
C=CC(=O)N1CCN(c2nc(=O)n(-c3c(C)ccnc3C(C)C)c3nc(-c4c(O)cccc4F)c(F)cc23)C(C)C1 (stereo not given) + Cc1cccc(N(C)C(=O)C2C(O)CCN2c2nc(C)cc(C(F)(F)F)c2C#N)c1,pIC50,second compound 0.0316 µM,< 5.00
same,pIC50,second compound 0.1 µM,< 5.00
same,pIC50,second compound 0.316 µM,< 5.00
same,pIC50,second compound 1 µM,< 5.00
same,pIC50,second compound 3.16 µM,< 5.00
same,pIC50,second compound 10 µM,< 5.00
same,"viability, T/C",[1],103%
same,"viability, T/C",[2],108%
same,"viability, T/C",[3],107%
same,"viability, T/C",[4],120%
same,"viability, T/C",[5],141%
same,"viability, T/C",[6],138%
same,"viability, T/C",[7],104%
same,"viability, T/C",[8],110%
same,"viability, T/C",[9],115%
same,"viability, T/C",[10],133%
same,"viability, T/C",[11],128%
same,"viability, T/C",[12],126%
same,"viability, T/C",[13],108%
same,"viability, T/C",[14],111%
same,"viability, T/C",[15],119%
same,"viability, T/C",[16],123%
same,"viability, T/C",[17],143%
same,"viability, T/C",[18],125%
same,"viability, T/C",[19],114%
same,"viability, T/C",[20],100%
same,"viability, T/C",[21],111%
same,"viability, T/C",[22],123%
same,"viability, T/C",[23],144%
same,"viability, T/C",[24],117%
same,"viability, T/C",[25],105%
same,"viability, T/C",[26],110%
same,"viability, T/C",[27],106%
same,"viability, T/C",[28],111%
same,"viability, T/C",[29],136%
same,"viability, T/C",[30],124%
same,"viability, T/C",[31],110%
same,"viability, T/C",[32],101%
same,"viability, T/C",[33],103%
same,"viability, T/C",[34],111%
same,"viability, T/C",[35],120%
same,"viability, T/C",[36],128%
CC(C)n1c(=O)n(C)c2cnc3cc(F)c(-c4ccc(OCCCN5CCCCC5)nc4)cc3c21 + Cc1cccc(N(C)C(=O)C2C(O)CCN2c2nc(C)cc(C(F)(F)F)c2C#N)c1,pIC50,second compound 0.0316 µM,< 5.00
same,pIC50,second compound 0.1 µM,< 5.00
same,pIC50,second compound 0.316 µM,< 5.00
same,pIC50,second compound 1 µM,< 5.00
same,pIC50,second compound 3.16 µM,< 5.00
same,pIC50,second compound 10 µM,< 5.00
same,"viability, T/C",[1],84.6%
same,"viability, T/C",[2],102%
same,"viability, T/C",[3],96.9%
same,"viability, T/C",[4],100%
same,"viability, T/C",[5],89.2%
same,"viability, T/C",[6],78.1%
same,"viability, T/C",[7],94.7%
same,"viability, T/C",[8],103%
same,"viability, T/C",[9],100%
same,"viability, T/C",[10],90.4%
same,"viability, T/C",[11],85.9%
same,"viability, T/C",[12],76.4%
same,"viability, T/C",[13],105%
same,"viability, T/C",[14],99%
same,"viability, T/C",[15],79.7%
same,"viability, T/C",[16],99.8%
same,"viability, T/C",[17],98.8%
same,"viability, T/C",[18],73.3%
same,"viability, T/C",[19],106%
same,"viability, T/C",[20],106%
same,"viability, T/C",[21],102%
same,"viability, T/C",[22],91.8%
same,"viability, T/C",[23],89.2%
same,"viability, T/C",[24],72.4%
same,"viability, T/C",[25],91%
same,"viability, T/C",[26],91.8%
same,"viability, T/C",[27],114%
same,"viability, T/C",[28],101%
same,"viability, T/C",[29],107%
same,"viability, T/C",[30],69.4%
same,"viability, T/C",[31],88.8%
same,"viability, T/C",[32],98.6%
same,"viability, T/C",[33],104%
same,"viability, T/C",[34],90.2%
same,"viability, T/C",[35],87.8%
same,"viability, T/C",[36],66.4%
CC1COCCN1c1cc(-c2ccnn2C)c2ccnc(-c3ccn[nH]3)c2n1 (stereo not given) + Cc1cccc(N(C)C(=O)C2C(O)CCN2c2nc(C)cc(C(F)(F)F)c2C#N)c1,pIC50,second compound 0.0316 µM,5.97
same,pIC50,second compound 0.1 µM,5.80
same,pIC50,second compound 0.316 µM,5.81
same,pIC50,second compound 1 µM,5.82
same,pIC50,second compound 3.16 µM,6.01
same,pIC50,second compound 10 µM,6.05
same,"viability, T/C",[1],90.6%
same,"viability, T/C",[2],79.1%
same,"viability, T/C",[3],68.1%
same,"viability, T/C",[4],46.1%
same,"viability, T/C",[5],48.6%
same,"viability, T/C",[6],43.1%
same,"viability, T/C",[7],99.3%
same,"viability, T/C",[8],87.7%
same,"viability, T/C",[9],74.3%
same,"viability, T/C",[10],54.5%
same,"viability, T/C",[11],39.9%
same,"viability, T/C",[12],45.4%
same,"viability, T/C",[13],95.1%
same,"viability, T/C",[14],90.6%
same,"viability, T/C",[15],69%
same,"viability, T/C",[16],53.3%
same,"viability, T/C",[17],47%
same,"viability, T/C",[18],36.1%
same,"viability, T/C",[19],92.3%
same,"viability, T/C",[20],80.5%
same,"viability, T/C",[21],67.7%
same,"viability, T/C",[22],50.4%
same,"viability, T/C",[23],46.6%
same,"viability, T/C",[24],44.4%
same,"viability, T/C",[25],101%
same,"viability, T/C",[26],88%
same,"viability, T/C",[27],71.4%
same,"viability, T/C",[28],47%
same,"viability, T/C",[29],44.1%
same,"viability, T/C",[30],40.5%
same,"viability, T/C",[31],91.6%
same,"viability, T/C",[32],82.9%
same,"viability, T/C",[33],69%
same,"viability, T/C",[34],46.5%
same,"viability, T/C",[35],42%
same,"viability, T/C",[36],40.2%
CC1COCCN1c1cc(C2(S(C)(=N)=O)CC2)nc(-c2ccnc3[nH]ccc23)n1 (stereo not given) + Cc1cccc(N(C)C(=O)C2C(O)CCN2c2nc(C)cc(C(F)(F)F)c2C#N)c1,pIC50,second compound 0.0316 µM,< 5.00
same,pIC50,second compound 0.1 µM,< 5.00
same,pIC50,second compound 0.316 µM,< 5.00
same,pIC50,second compound 1 µM,< 5.00
same,pIC50,second compound 3.16 µM,< 5.00
same,pIC50,second compound 10 µM,< 5.00
same,"viability, T/C",[1],98.1%
same,"viability, T/C",[2],102%
same,"viability, T/C",[3],101%
same,"viability, T/C",[4],95.4%
same,"viability, T/C",[5],83.6%
same,"viability, T/C",[6],64.5%
same,"viability, T/C",[7],104%
same,"viability, T/C",[8],98.5%
same,"viability, T/C",[9],90.1%
same,"viability, T/C",[10],102%
same,"viability, T/C",[11],75.1%
same,"viability, T/C",[12],59.4%
same,"viability, T/C",[13],115%
same,"viability, T/C",[14],96.6%
same,"viability, T/C",[15],98.8%
same,"viability, T/C",[16],87.1%
same,"viability, T/C",[17],92%
same,"viability, T/C",[18],60.1%
same,"viability, T/C",[19],101%
same,"viability, T/C",[20],99.3%
same,"viability, T/C",[21],93.5%
same,"viability, T/C",[22],96%
same,"viability, T/C",[23],75.3%
same,"viability, T/C",[24],54.5%
same,"viability, T/C",[25],99.4%
same,"viability, T/C",[26],99.6%
same,"viability, T/C",[27],99.6%
same,"viability, T/C",[28],87.2%
same,"viability, T/C",[29],77.4%
same,"viability, T/C",[30],55.4%
same,"viability, T/C",[31],90.8%
same,"viability, T/C",[32],96.3%
same,"viability, T/C",[33],98.4%
same,"viability, T/C",[34],91.5%
same,"viability, T/C",[35],64.9%
same,"viability, T/C",[36],68.8%
COc1ccc([C@@H](O)c2cc(-c3ncnc4cc(N5CCOCC5)ccc34)c(F)cc2Cl)nn1 + Cc1cccc(N(C)C(=O)C2C(O)CCN2c2nc(C)cc(C(F)(F)F)c2C#N)c1,pIC50,second compound 0.0316 µM,5.28
same,pIC50,second compound 0.1 µM,5.11
same,pIC50,second compound 0.316 µM,5.39
same,pIC50,second compound 1 µM,5.19
same,pIC50,second compound 3.16 µM,5.32
same,pIC50,second compound 10 µM,5.23
same,"viability, T/C",[1],107%
same,"viability, T/C",[2],92.1%
same,"viability, T/C",[3],81.5%
same,"viability, T/C",[4],66.6%
same,"viability, T/C",[5],56.9%
same,"viability, T/C",[6],42.5%
same,"viability, T/C",[7],105%
same,"viability, T/C",[8],95.3%
same,"viability, T/C",[9],75.9%
same,"viability, T/C",[10],73.1%
same,"viability, T/C",[11],64.7%
same,"viability, T/C",[12],44.4%
same,"viability, T/C",[13],96%
same,"viability, T/C",[14],88.5%
same,"viability, T/C",[15],76.3%
same,"viability, T/C",[16],65.2%
same,"viability, T/C",[17],55.8%
same,"viability, T/C",[18],37.5%
same,"viability, T/C",[19],112%
same,"viability, T/C",[20],88.2%
same,"viability, T/C",[21],85.6%
same,"viability, T/C",[22],72.5%
same,"viability, T/C",[23],56.1%
same,"viability, T/C",[24],45%
same,"viability, T/C",[25],93.5%
same,"viability, T/C",[26],85.1%
same,"viability, T/C",[27],91%
same,"viability, T/C",[28],71.6%
same,"viability, T/C",[29],57.4%
same,"viability, T/C",[30],39.2%
same,"viability, T/C",[31],96.8%
same,"viability, T/C",[32],82.1%
same,"viability, T/C",[33],80.2%
same,"viability, T/C",[34],71.2%
same,"viability, T/C",[35],58.1%
same,"viability, T/C",[36],42.4%
